# Assay: The drug is tested on Bacteroides coprophilus strain: DSM18228 for biotransformation. The drug concentrations were measured before and after a 12-h incubation by liquid-chromatography-coupled mass spectrometry (LC–MS)
# Conditions: 2 µM
row,Bacterial Biotransformation,SMILES
1,Compound NOT metabolized,CN(C)CCC=C1c2ccccc2C=Cc2ccccc21 [CYCLOBENZAPRINE]
2,Compound metabolized,CCOC(=O)[C@H](CCc1ccccc1)N[C@@H](C)C(=O)N1Cc2ccccc2C[C@H]1C(=O)O
3,Compound metabolized,CCCc1nc(C(C)(C)O)c(C(=O)OCc2oc(=O)oc2C)n1Cc1ccc(-c2ccccc2-c2nnn[nH]2)cc1 [OLMESARTAN MEDOXOMIL]
4,Compound NOT metabolized,CN(C)CCc1c[nH]c2ccc(CS(=O)(=O)N3CCCC3)cc12 [ALMOTRIPTAN]

# Assay: The drug is tested on Bacteroides dorei strain: DSM17855 for biotransformation. The drug concentrations were measured before and after a 12-h incubation by liquid-chromatography-coupled mass spectrometry (LC–MS)
# Conditions: phocaeicola dorei, 2 µM
row,Bacterial Biotransformation,SMILES
1,Compound metabolized,CCOC(=O)[C@H](CCc1ccccc1)N[C@@H](C)C(=O)N1Cc2ccccc2C[C@H]1C(=O)O
2,Compound metabolized,CCCc1nc(C(C)(C)O)c(C(=O)OCc2oc(=O)oc2C)n1Cc1ccc(-c2ccccc2-c2nnn[nH]2)cc1 [OLMESARTAN MEDOXOMIL]

# Assay: The drug is tested on Bacteroides ovatus strain: ATCC8483 for biotransformation. The drug concentrations were measured before and after a 12-h incubation by liquid-chromatography-coupled mass spectrometry (LC–MS)
# Conditions: 2 µM
row,Bacterial Biotransformation,SMILES
1,Compound NOT metabolized,CN(C)CCC=C1c2ccccc2C=Cc2ccccc21 [CYCLOBENZAPRINE]
2,Compound metabolized,CCCc1nc(C(C)(C)O)c(C(=O)OCc2oc(=O)oc2C)n1Cc1ccc(-c2ccccc2-c2nnn[nH]2)cc1 [OLMESARTAN MEDOXOMIL]
3,Compound NOT metabolized,CN(C)CCc1c[nH]c2ccc(CS(=O)(=O)N3CCCC3)cc12 [ALMOTRIPTAN]

# Assay: The drug is tested on Bacteroides pectinophilus strain: ATCC43243 for biotransformation. The drug concentrations were measured before and after a 12-h incubation by liquid-chromatography-coupled mass spectrometry (LC–MS)
# Conditions: 2 µM
row,Bacterial Biotransformation,SMILES
1,Compound metabolized,CCOC(=O)[C@H](CCc1ccccc1)N[C@@H](C)C(=O)N1Cc2ccccc2C[C@H]1C(=O)O
2,Compound metabolized,CCCc1nc(C(C)(C)O)c(C(=O)OCc2oc(=O)oc2C)n1Cc1ccc(-c2ccccc2-c2nnn[nH]2)cc1 [OLMESARTAN MEDOXOMIL]
3,Compound NOT metabolized,CN(C)CCc1c[nH]c2ccc(CS(=O)(=O)N3CCCC3)cc12 [ALMOTRIPTAN]

# Assay: The drug is tested on Bacteroides uniformis strain: ATCC8492 for biotransformation. The drug concentrations were measured before and after a 12-h incubation by liquid-chromatography-coupled mass spectrometry (LC–MS)
# Conditions: 2 µM
row,Bacterial Biotransformation,SMILES
1,Compound metabolized,CCOC(=O)[C@H](CCc1ccccc1)N[C@@H](C)C(=O)N1Cc2ccccc2C[C@H]1C(=O)O
2,Compound metabolized,CCCc1nc(C(C)(C)O)c(C(=O)OCc2oc(=O)oc2C)n1Cc1ccc(-c2ccccc2-c2nnn[nH]2)cc1 [OLMESARTAN MEDOXOMIL]
3,Compound NOT metabolized,CN(C)CCc1c[nH]c2ccc(CS(=O)(=O)N3CCCC3)cc12 [ALMOTRIPTAN]

# Assay: The drug is tested on Parabacteroides merdae strain: ATCC43184 for biotransformation. The drug concentrations were measured before and after a 12-h incubation by liquid-chromatography-coupled mass spectrometry (LC–MS)
# Conditions: 2 µM
row,Bacterial Biotransformation,SMILES
1,Compound NOT metabolized,CN(C)CCC=C1c2ccccc2C=Cc2ccccc21 [CYCLOBENZAPRINE]
2,Compound NOT metabolized,CCOC(=O)[C@H](CCc1ccccc1)N[C@@H](C)C(=O)N1Cc2ccccc2C[C@H]1C(=O)O
3,Compound metabolized,CCCc1nc(C(C)(C)O)c(C(=O)OCc2oc(=O)oc2C)n1Cc1ccc(-c2ccccc2-c2nnn[nH]2)cc1 [OLMESARTAN MEDOXOMIL]
4,Compound NOT metabolized,CN(C)CCc1c[nH]c2ccc(CS(=O)(=O)N3CCCC3)cc12 [ALMOTRIPTAN]

# Assay: The drug is tested on Anaerococcus hydrogenalis strain: DSM7454 for biotransformation. The drug concentrations were measured before and after a 12-h incubation by liquid-chromatography-coupled mass spectrometry (LC–MS)
# Conditions: 2 µM
row,Bacterial Biotransformation,SMILES
1,Compound NOT metabolized,CN(C)CCC=C1c2ccccc2C=Cc2ccccc21 [CYCLOBENZAPRINE]
2,Compound NOT metabolized,CCOC(=O)[C@H](CCc1ccccc1)N[C@@H](C)C(=O)N1Cc2ccccc2C[C@H]1C(=O)O
3,Compound metabolized,CCCc1nc(C(C)(C)O)c(C(=O)OCc2oc(=O)oc2C)n1Cc1ccc(-c2ccccc2-c2nnn[nH]2)cc1 [OLMESARTAN MEDOXOMIL]
4,Compound NOT metabolized,CN(C)CCc1c[nH]c2ccc(CS(=O)(=O)N3CCCC3)cc12 [ALMOTRIPTAN]

# Assay: The drug is tested on Anaerotruncus colihominis strain: DSM17241 for biotransformation. The drug concentrations were measured before and after a 12-h incubation by liquid-chromatography-coupled mass spectrometry (LC–MS)
# Conditions: 2 µM
row,Bacterial Biotransformation,SMILES
1,Compound NOT metabolized,CN(C)CCC=C1c2ccccc2C=Cc2ccccc21 [CYCLOBENZAPRINE]
2,Compound metabolized,CCCc1nc(C(C)(C)O)c(C(=O)OCc2oc(=O)oc2C)n1Cc1ccc(-c2ccccc2-c2nnn[nH]2)cc1 [OLMESARTAN MEDOXOMIL]
3,Compound NOT metabolized,CN(C)CCc1c[nH]c2ccc(CS(=O)(=O)N3CCCC3)cc12 [ALMOTRIPTAN]

# Assay: The drug is tested on Clostridium ramosum strain: DSM1402 for biotransformation. The drug concentrations were measured before and after a 12-h incubation by liquid-chromatography-coupled mass spectrometry (LC–MS)
# Conditions: thomasclavelia ramosa, 2 µM
row,Bacterial Biotransformation,SMILES
1,Compound NOT metabolized,CN(C)CCC=C1c2ccccc2C=Cc2ccccc21 [CYCLOBENZAPRINE]
2,Compound NOT metabolized,CN(C)CCc1c[nH]c2ccc(CS(=O)(=O)N3CCCC3)cc12 [ALMOTRIPTAN]

# Assay: The drug is tested on Enterococcus faecalis strain: V583 for biotransformation. The drug concentrations were measured before and after a 12-h incubation by liquid-chromatography-coupled mass spectrometry (LC–MS)
# Conditions: 2 µM
row,Bacterial Biotransformation,SMILES
1,Compound NOT metabolized,CN(C)CCC=C1c2ccccc2C=Cc2ccccc21 [CYCLOBENZAPRINE]
2,Compound NOT metabolized,CCOC(=O)[C@H](CCc1ccccc1)N[C@@H](C)C(=O)N1Cc2ccccc2C[C@H]1C(=O)O
3,Compound NOT metabolized,CN(C)CCc1c[nH]c2ccc(CS(=O)(=O)N3CCCC3)cc12 [ALMOTRIPTAN]

# Assay: The drug is tested on Eubacterium rectale strain: ATCC33656 for biotransformation. The drug concentrations were measured before and after a 12-h incubation by liquid-chromatography-coupled mass spectrometry (LC–MS)
# Conditions: agathobacter rectalis, 2 µM
row,Bacterial Biotransformation,SMILES
1,Compound NOT metabolized,CN(C)CCC=C1c2ccccc2C=Cc2ccccc21 [CYCLOBENZAPRINE]
2,Compound NOT metabolized,CCOC(=O)[C@H](CCc1ccccc1)N[C@@H](C)C(=O)N1Cc2ccccc2C[C@H]1C(=O)O
3,Compound metabolized,CCCc1nc(C(C)(C)O)c(C(=O)OCc2oc(=O)oc2C)n1Cc1ccc(-c2ccccc2-c2nnn[nH]2)cc1 [OLMESARTAN MEDOXOMIL]
4,Compound NOT metabolized,CN(C)CCc1c[nH]c2ccc(CS(=O)(=O)N3CCCC3)cc12 [ALMOTRIPTAN]

# Assay: The drug is tested on Ruminococcus gnavus strain: ATCC29149 for biotransformation. The drug concentrations were measured before and after a 12-h incubation by liquid-chromatography-coupled mass spectrometry (LC–MS)
# Conditions: mediterraneibacter gnavus, 2 µM
row,Bacterial Biotransformation,SMILES
1,Compound NOT metabolized,CN(C)CCC=C1c2ccccc2C=Cc2ccccc21 [CYCLOBENZAPRINE]
2,Compound NOT metabolized,CCOC(=O)[C@H](CCc1ccccc1)N[C@@H](C)C(=O)N1Cc2ccccc2C[C@H]1C(=O)O
3,Compound NOT metabolized,CCCc1nc(C(C)(C)O)c(C(=O)OCc2oc(=O)oc2C)n1Cc1ccc(-c2ccccc2-c2nnn[nH]2)cc1 [OLMESARTAN MEDOXOMIL]
4,Compound NOT metabolized,CN(C)CCc1c[nH]c2ccc(CS(=O)(=O)N3CCCC3)cc12 [ALMOTRIPTAN]

# Assay: The drug is tested on Ruminococcus torques strain: ATCC27756 for biotransformation. The drug concentrations were measured before and after a 12-h incubation by liquid-chromatography-coupled mass spectrometry (LC–MS)
# Type: ADME
# Design: dose 2 uM, timepoint 0 vs 12 hours
# Conditions: 2 µM
row,Bacterial Biotransformation,SMILES
1,Compound NOT metabolized,CN(C)CCC=C1c2ccccc2C=Cc2ccccc21 [CYCLOBENZAPRINE]
2,Compound NOT metabolized,CCOC(=O)[C@H](CCc1ccccc1)N[C@@H](C)C(=O)N1Cc2ccccc2C[C@H]1C(=O)O
3,Compound NOT metabolized,CN(C)CCc1c[nH]c2ccc(CS(=O)(=O)N3CCCC3)cc12 [ALMOTRIPTAN]

# Assay: The drug is tested on Edwardsiella tarda strain: ATCC23685 for biotransformation. The drug concentrations were measured before and after a 12-h incubation by liquid-chromatography-coupled mass spectrometry (LC–MS)
# Conditions: 2 µM
row,Bacterial Biotransformation,SMILES
1,Compound NOT metabolized,CN(C)CCC=C1c2ccccc2C=Cc2ccccc21 [CYCLOBENZAPRINE]
2,Compound NOT metabolized,CCOC(=O)[C@H](CCc1ccccc1)N[C@@H](C)C(=O)N1Cc2ccccc2C[C@H]1C(=O)O
3,Compound metabolized,CCCc1nc(C(C)(C)O)c(C(=O)OCc2oc(=O)oc2C)n1Cc1ccc(-c2ccccc2-c2nnn[nH]2)cc1 [OLMESARTAN MEDOXOMIL]
4,Compound NOT metabolized,CN(C)CCc1c[nH]c2ccc(CS(=O)(=O)N3CCCC3)cc12 [ALMOTRIPTAN]

# Assay: The drug is tested on Providencia stuartii strain: ATCC25827 for biotransformation. The drug concentrations were measured before and after a 12-h incubation by liquid-chromatography-coupled mass spectrometry (LC–MS)
# Conditions: 2 µM
row,Bacterial Biotransformation,SMILES
1,Compound NOT metabolized,CN(C)CCC=C1c2ccccc2C=Cc2ccccc21 [CYCLOBENZAPRINE]
2,Compound metabolized,CCOC(=O)[C@H](CCc1ccccc1)N[C@@H](C)C(=O)N1Cc2ccccc2C[C@H]1C(=O)O
3,Compound metabolized,CCCc1nc(C(C)(C)O)c(C(=O)OCc2oc(=O)oc2C)n1Cc1ccc(-c2ccccc2-c2nnn[nH]2)cc1 [OLMESARTAN MEDOXOMIL]
4,Compound NOT metabolized,CN(C)CCc1c[nH]c2ccc(CS(=O)(=O)N3CCCC3)cc12 [ALMOTRIPTAN]

# Conditions: bifidobacterium adolescentis, 12 h, 2 µM
# Description: The drug is tested on Bifidobacterium adolescentis strain: ATCC 15703 for biotransformation. The drug concentrations were measured before and after a 12-h incubation by liquid-chromatography-coupled mass spectrometry (LC–MS)
row,Bacterial Biotransformation,SMILES
1,Compound NOT metabolized,CN(C)CCC=C1c2ccccc2C=Cc2ccccc21 [CYCLOBENZAPRINE]
2,Compound NOT metabolized,CCCc1nc(C(C)(C)O)c(C(=O)OCc2oc(=O)oc2C)n1Cc1ccc(-c2ccccc2-c2nnn[nH]2)cc1 [OLMESARTAN MEDOXOMIL]
3,Compound NOT metabolized,CN(C)CCc1c[nH]c2ccc(CS(=O)(=O)N3CCCC3)cc12 [ALMOTRIPTAN]

# Conditions: bacteroides fragilis, 12 h, 2 µM
# Description: The drug is tested on Bacteroides fragilis strain: NCTC 9343 for biotransformation. The drug concentrations were measured before and after a 12-h incubation by liquid-chromatography-coupled mass spectrometry (LC–MS)
row,Bacterial Biotransformation,SMILES
1,Compound NOT metabolized,CN(C)CCC=C1c2ccccc2C=Cc2ccccc21 [CYCLOBENZAPRINE]
2,Compound metabolized,CCOC(=O)[C@H](CCc1ccccc1)N[C@@H](C)C(=O)N1Cc2ccccc2C[C@H]1C(=O)O
3,Compound metabolized,CCCc1nc(C(C)(C)O)c(C(=O)OCc2oc(=O)oc2C)n1Cc1ccc(-c2ccccc2-c2nnn[nH]2)cc1 [OLMESARTAN MEDOXOMIL]
4,Compound NOT metabolized,CN(C)CCc1c[nH]c2ccc(CS(=O)(=O)N3CCCC3)cc12 [ALMOTRIPTAN]

# Conditions: parabacteroides johnsonii, 12 h, 2 µM
# Description: The drug is tested on Parabacteroides johnsonii strain: DSM18315 for biotransformation. The drug concentrations were measured before and after a 12-h incubation by liquid-chromatography-coupled mass spectrometry (LC–MS)
row,Bacterial Biotransformation,SMILES
1,Compound metabolized,CCOC(=O)[C@H](CCc1ccccc1)N[C@@H](C)C(=O)N1Cc2ccccc2C[C@H]1C(=O)O
2,Compound metabolized,CCCc1nc(C(C)(C)O)c(C(=O)OCc2oc(=O)oc2C)n1Cc1ccc(-c2ccccc2-c2nnn[nH]2)cc1 [OLMESARTAN MEDOXOMIL]

# Conditions: limosilactobacillus reuteri cf48-3a, 12 h, 2 µM
# Description: The drug is tested on Lactobacillus reuteri CF48-3A strain: BEI HM-102 for biotransformation. The drug concentrations were measured before and after a 12-h incubation by liquid-chromatography-coupled mass spectrometry (LC–MS)
row,Bacterial Biotransformation,SMILES
1,Compound NOT metabolized,CN(C)CCC=C1c2ccccc2C=Cc2ccccc21 [CYCLOBENZAPRINE]
2,Compound NOT metabolized,CCOC(=O)[C@H](CCc1ccccc1)N[C@@H](C)C(=O)N1Cc2ccccc2C[C@H]1C(=O)O
3,Compound metabolized,CCCc1nc(C(C)(C)O)c(C(=O)OCc2oc(=O)oc2C)n1Cc1ccc(-c2ccccc2-c2nnn[nH]2)cc1 [OLMESARTAN MEDOXOMIL]

# From ChEMBL document CHEMBL5303573, “Mapping human microbiome drug metabolism by gut bacteria and their genes” (Nature, 2019)
